Assay results taken from US20100168112A1, “2-Substituted and 4-substituted aryl nitrone compounds” (RENOVIS, INC., priority 2004, published 2010).
Where two headings read alike, the source gives them in different places.

Assays:
[1] = Solubility measurement at pH 7.4; format: physicochemical; settings: aqueous buffer, thermodynamic from solid, phosphate buffer pH 7.4, room temperature
Experimental: Nitrone compounds (>3 mg) of this invention were mixed with a phosphate buffer at pH 7.4 to make a >0.3 mg/mL mixture. The mixture was vortexed for more than 2 hours and equilibrated over 12 hours at room temperature. The equilibrated mixture was used to saturate a 0.45 μm Tuffryn syringe filter. After saturating, the remainder of the mixture was filtered through the saturated filter. The filtrate was diluted by 1, 10, 100, and 1000 fold and analyzed using a LC/MS/MS method with standard curve ranging from 1 to 1000 ng/mL.

[2] = Microsomal stability in human liver microsomes; format: in vitro ADME; settings: NADPH, 37° C.
Experimental: Frozen Sprague-Dawley rat liver microsomes (RLM) were thawed on ice and gently mixed before use. The final reaction mixture consisted of a nitrone compound of this invention (at ˜500 ng/ml), 1 mM NADPH, and 0.5 mg/ml of RLM protein in 0.1 M PBS (pH7.4), with organic solvent concentration not exceeding 1% (v/v). Per set of incubations, a positive control compound was included. The mixture was first pre-incubated 3 to 5 minutes at 37° C. without NADPH, and the reaction was then initialized by the addition of NADPH and incubated at 37° C. for up to 30 minutes. An aliquot of the reaction mixture was sampled at the initiation of the reaction and at designated time after reaction started. The drawn samples were quenched with acetonitrile, diluted with mobile phase to ensure the detection of test article in the linear range, and analyzed by LC/MS/MS. Half-life or percentage of remaining nitrone compound was calculated using standard methods. A similar method, or a slight variation of it, was used to test the stability of nitrones in human liver microsomes (HLM).

[3] = DPPH free radical-scavenging/antioxidant assay; format: biochemical; settings: 50 μM DPPH in 80% methanol; 24 h time point; read-out: EC50 (concentration at which a compound reduces by 50% the peak absorbance of DPPH at 520 nm)
Experimental: Nitrone compounds of the present invention were tested for their free-radical scavenging/antioxidant activity in an in vitro assay that is accepted by those skilled in the art as a model for conditions involving the generation of free radicals. The assay is based on a reaction between a free-radical donor, 2,2-diphenyl-1-picrylhydrazyl (DPPH), and a radical scavenger/antioxidant to be tested for free-radical scavenging activity. Upon donation of the free-radical electron to the purported radical scavenger, the peak visible absorbance of DPPH (515-520 nm) decreases so that optical density readings at this part of the visual spectrum reflect the progression of the following reaction:
where AH is a hypothetical radical scavenger/antioxidant. The assay is based on a protocol originally detailed in Brand-Williams, W. et al., 1995, Use of a Free Radical Method to Evaluate Antioxidant Activity, Lebensm. Wiss. Technol., 28:25-30, with further modifications described in L. R. Fukumoto and G. Mazza, 2000, Assessing Antioxidant and Prooxidant Activities of Phenolic Compounds, J. Agric. Food Chem., 48:3597-3604.
The antioxidant assay was performed using Perkin-Elmer 96-well, clear-bottom, black-wall plates (ordered from E & K Scientific Products) and a Tecan Safire absorbance plate reader. The positive controls were Trolox (6-hydroxy-2,5,7,8-tetramethylchromane-2-carboxylic acid, Sigma-Aldrich), BHA (2(3)-tert-butylhydroquinone monomethyl ether, Sigma-Aldrich), PBN (C-(phenyl)-N-(tert-butyl)nitrone, Sigma-Aldrich) and S-PBN (C-(2-sulfophenyl)-N-(tert-butyl)nitrone, sodium salt, prepared according to E. G. Janzen and R. V. Shetty, 1979, Tetrahedron Lett., 35: 3229-32), and the negative control (i.e., vehicle) was DMSO. In brief, 2 μL of 100× DMSO stock of the desired final concentration of each control or nitrone compound to be tested in the same batch was added to a separate well. To each well was then added 198 μL of a freshly made 50 μM DPPH (Sigma-Aldrich) solution in 80% methanol using a multi-channel pipette. The absorbance was immediately read on the plate reader at 520 nm and thereafter read periodically to assess kinetics until all reactions reached completion (i.e., steady state). Since the steady-state point was 24 h, the assay results are shown from the 24 h time point. The absorbance at 520 nm (OD) was plotted versus the concentrations of the controls and nitrone compounds to assess dose-response and interpolate the EC50 values of the controls and test compounds.

[4] = Pharmacokinetic evaluation following intravenous and oral administration in rats; format: in vivo; settings: male, Sprague-Dawley; for Cmax / Tmax / bioavailability: 5 mg/kg; for Cmax: rat plasma; for Cmax / Tmax: oral gavage, 2 mg/mL at 2.5 mL/kg; for clearance / Vd / Tmax / bioavailability / half-life: plasma, rat; for clearance / Vd / half-life: 1 mg/kg; for clearance / Vd: intravenous administration, 1 mg/mL at 1.0 mL/kg; for clearance: read-out: CI (clearance) (converted); for Vd: read-out: Vd (volume of distribution); for bioavailability: po 2 mg/mL at 2.5 mL/kg vs iv 1 mg/mL at 1.0 mL/kg, dose-normalized, read-out: F (%) oral bioavailability; for half-life: intravenous, read-out: T1/2 elimination half life (converted)
Experimental: Male Sprague-Dawley rats were given at least 24 hours acclimation before experiment initiation. During acclimation period, all animals received food and water ad libitum. However, food (not water) was removed from the animal's cages up to 12 hours before initiation of the experiment. During the first 4 hours of experimentation, the animals received only water ad libitum. Two to three animals for iv and three animals for oral administration were tested. For iv formulation nitrone compounds of this invention were dissolved (1 mg/mL) in a mixture of 5% dimethyl acetamide (v/v), 0 to 4% Tween 80 (v/v), 10 to 40% PEG 400 (v/v) and the rest percentage of water (v/v). For oral formulation nitrone compounds of this invention were dissolved (2 mg/mL) in a mixture of 4% of 10% Tween in water and 96% of 0.5% carboxymethyl cellulose (medium viscosity) in water; or 4% of 10% Tween in water, 48% of 0.5% carboxymethyl cellulose (medium viscosity) in water, and 48% of 0.5% Hydroxypropyl Methylcellulose/0.2% Sodium Lauryl Sulfate in water. These formulations were stored at 5° C. until the experiment. Formulations were then stir-mixed at least half an hour before dosing. Exactly 200 μL of each left-over formulation was diluted with CH3CN/H2O for concentration analysis. The animals were weighed before dosing. The body weight was used to calculate the true dose for each animal:
IV dosing: • Dose volume (mL)=1.0 mL/kg The intravenous dose was administered through the jugular vein catheter or tail vein in less than 1 minute.
PO dosing: • Dose volume (mL)=2.5 mL/kg The oral dose was administered by oral gavage.
For IV dosing, blood samples were collected (using a pre-heparinized syringe) via the carotid artery or jugular vein catheter at t=2, 5, 15, 30, 60, 120, 180, 360, and 480 minutes post dosing. For PO dosing, blood samples were collected (using a pre-heparinized syringe) via the carotid artery or jugular vein catheter before dosing and at t=5, 15, 30, 60, 120, 180, 360, and 480 minutes post dosing. For some nitrone compounds a 1440 minutes (24 hours) sample was also taken for both IV and PO administrations. About 250 μL of blood was obtained at each time point from the animals. Equal volumes of 0.9% normal saline were replaced to prevent dehydration. The whole blood samples were maintained on ice until centrifugation. Blood samples were then centrifuged at 14,000 rpm for 10 minutes at 4° C. and the upper plasma layer transferred into a clean vial and stored at −80° C. The resulting plasma samples were then analyzed by mass spectroscopy using standard methods.
All the samples from above assays were analyzed on a PE-Sciex API 3000 triple quadrupole with a Turbo Ion Spray source. Nitrone compounds of this invention were separated from the matrix via a linear gradient reverse-phase chromatography using a C18 column, such as Thermo BDS Hypersil C18 (100×4.6 mm, 5 micron particle, 120A pore size). The mobile Phases were:
Nitrone compounds were detected by the mass spectrometer in the positive ion multiple reaction monitoring mode (MRM). For quantitative analysis, a standard curve was prepared by spiking a stock solution of the nitrone compound to the appropriate matrix to achieve a quantitation curve range and analyzed the standards in the same manner as the samples.
Pharmacokinetic parameters of the aryl nitrone compounds were determined by a noncompartmental analysis using WinNonlin-Pro (Version 4.1, Pharsight Corporation). Average and standard deviation of the parameters were calculated using standard formulas in Microsoft Excel.

[5] = read-out: Solubility @ pH 7.4 (μg/mL)

| Structure (SMILES) | solubility ([1]; read-out: Solubility @ pH 7.4) [µM] | solubility [1, 5] [µg/mL] | % of Nitrone Remaining at 30 min (Human) [2] [%] | EC50 [3] [µM] | Cmax [4] [µg/mL] | clearance [4] [L/h/kg] | Vd [4] [L/kg] | Tmax [4] [min] | bioavailability [4] [%] | half-life [4] [min] |
| --- | --- | --- | --- | --- | --- | --- | --- | --- | --- | --- |
| O=S(=O)(c1ccccc1/C=[N+](\[O-])C1CCCCC1)N1CCOCC1 [Compound 36] | 584 | 206 | 24.2 | > 1000 |  |  |  |  |  |  |
| O=S(=O)(c1ccccc1/C=[N+](\[O-])Cc1ccccc1)N1CCCc2ccccc21 [Compound 46, N-Benzyl-C-[2-(3,4-dihydro-2H-quinoline-1-sulfonyl)phenyl]nitrone] | 5.26 | 2.14 | 0 | > 1000 |  |  |  |  |  |  |
| CC(C)(C)/[N+]([O-])=C/c1cccnc1S(C)(=O)=O [Compound 73, N-tert-Butyl-C-(2-methanesulfonyl-pyridine-3-yl)nitrone] | > 11300 | > 2900 | 100 | > 1000 | 4.17 | 0.2 | 0.8 | 85.2 | 72.2 | 166 |
| O=S(=O)(c1ccccc1/C=[N+](\[O-])Cc1ccccc1)N1CCOCC1 [Compound 37] | 5020 | 1810 | 65.4 | 100 to 500 |  |  |  |  |  |  |
| O=S(=O)(c1ccccc1/C=[N+](\[O-])C1CCCCC1)N1CCCc2ccccc21 [Compound 45, N-Cyclohexyl-C-[2-(3,4-dihydro-2H-quinoline-1-sulfonyl)phenyl]nitrone] | 3.5 | 1.42 | 0 | > 1000 |  |  |  |  |  |  |
| CC(C)(C)/[N+]([O-])=C/c1ccccc1S(=O)(=O)N1CCCc2ccccc21 [Compound 44, N-tert-Butyl-C-[2-(3,4-dihydro-2H-quinoline-1-sulfonyl)phenyl]nitrone] | 156 | 58.1 | 0 | > 1000 |  |  |  |  |  |  |
| CS(=O)(=O)c1ncccc1/C=[N+](\[O-])Cc1ccccc1 [Compound 75, N-Benzyl-C-(2-methanesulfonyl-pyridine-3-yl)nitrone] | 2920 | 848 | 95.1 | > 1000 | 1.03 | 1.31 | 1.07 | 11.4 | 50.2 | 34.2 |

Continued, values first:

| solubility ([1]; read-out: Solubility @ pH 7.4) [µM] | solubility [1, 5] [µg/mL] | % of Nitrone Remaining at 30 min (Human) [2] [%] | EC50 [3] [µM] | Cmax [4] [µg/mL] | clearance [4] [L/h/kg] | Vd [4] [L/kg] | Tmax [4] [min] | bioavailability [4] [%] | half-life [4] [min] | Structure (SMILES) |
| --- | --- | --- | --- | --- | --- | --- | --- | --- | --- | --- |
| 96 | 29.4 | 75.7 | > 1000 | 0.012 | 22.6 | 10.7 | 11.4 | 9.4 | 19.2 | CC(C)(C)/[N+]([O-])=C/c1cc2ccccc2nc1S(C)(=O)=O [Compound 74, N-tert-Butyl-C-(2-methanesulfonyl-quinoline-3-yl)nitrone] |
| > 2280 | > 851 | 27.9 | > 1000 |  |  |  |  |  |  | CN1CCN(S(=O)(=O)c2ccccc2/C=[N+](\[O-])Cc2ccccc2)CC1 [Compound 40, N-Benzyl-C-[2-(4-methyl-piperazine-1-sulfonyl)phenyl]nitrone] |
| > 4070 | > 1150 | 90.5 | > 1000 |  |  |  |  |  |  | CS(=O)(=O)c1ncccc1/C=[N+](\[O-])C1CCCCC1 [Compound 76, N-Cyclohexyl-C-(2-methanesulfonyl-pyridine-3-yl)nitrone] |
| 413 | 143 | 0 | > 1000 |  |  |  |  |  |  | CN(c1ccccc1)S(=O)(=O)c1ccccc1/C=[N+](\[O-])C(C)(C)C [Compound 41] |
| > 1860 | > 632 | 76.6 | > 1000 |  |  |  |  |  |  | CN1CCN(S(=O)(=O)c2ccccc2/C=[N+](\[O-])C(C)(C)C)CC1 [Compound 38, N-tert-Butyl-C-[2-(4-methyl-piperazine-1-sulfonyl)phenyl]nitrone] |
| > 2630 | > 962 | 41.9 | > 1000 |  |  |  |  |  |  | CN1CCN(S(=O)(=O)c2ccccc2/C=[N+](\[O-])C2CCCCC2)CC1 [Compound 39, N-Cyclohexyl-C-[2-(4-methyl-piperazine-1-sulfonyl)phenyl]nitrone] |
